# Test results reported in patent publication US20180325914A1, “INCREASING STORAGE OF VITAMIN A, VITAMIN D AND/OR LIPIDS” (Salk Institute for Biological Studies, priority 2014, published 2018).
# System: primary HSCs
compound,measurement,setting,value
"Cc1sc2c(c1C)C(c1ccc(Cl)cc1)=N[C@@H](CC(=O)OC(C)(C)C)c1nnc(C)n1-2 [JQ1, (S)-tert-butyl 2-(4-(4-chlorophenyl)-2,3,9-trimethyl-6H-thieno[3,2-f][1,2,4]triazolo[4,3-a][1,4]diazepin-6-yl)acetate]",Pla2r1 value_2,"gene Pla2r1, mRNA-Seq, sample Day_6_JQ1",26.6778
same,Plat value_2,"gene Plat, mRNA-Seq, sample Day_6_JQ1",141.636
same,Prelp value_2,"gene Prelp, mRNA-Seq, sample Day_6_JQ1",1220.99
same,Prss35 value_2,"gene Prss35, mRNA-Seq, sample Day_6_JQ1",23.844
same,Ptms value_2,"gene Ptms, mRNA-Seq, sample Day_6_JQ1",627.919
same,Ptrf value_2,"gene Ptrf, mRNA-Seq, sample Day_6_JQ1",259.645
same,Qpct value_2,"gene Qpct, mRNA-Seq, sample Day_6_JQ1",87.1308
same,Rad51 value_2,"gene Rad51, mRNA-Seq, sample Day_6_JQ1",12.1115
same,Rbp1 value_2,"gene Rbp1, mRNA-Seq, sample Day_6_JQ1",218.378
same,Reck value_2,"gene Reck, mRNA-Seq, sample Day_6_JQ1",17.3878
same,Rrm2 value_2,"gene Rrm2, mRNA-Seq, sample Day_6_JQ1",68.04
same,Rtn1 value_2,"gene Rtn1, mRNA-Seq, sample Day_6_JQ1",47.263
same,S100a4 value_2,"gene S100a4, mRNA-Seq, sample Day_6_JQ1",250.226
same,Sbsn value_2,"gene Sbsn, mRNA-Seq, sample Day_6_JQ1",16.3231
same,Scara3 value_2,"gene Scara3, mRNA-Seq, sample Day_6_JQ1",43.4366
same,Sdpr value_2,"gene Sdpr, mRNA-Seq, sample Day_6_JQ1",94.9074
same,Serpini1 value_2,"gene Serpini1, mRNA-Seq, sample Day_6_JQ1",12.3234
same,Sesn3 value_2,"gene Sesn3, mRNA-Seq, sample Day_6_JQ1",27.3512
same,Shcbp1 value_2,"gene Shcbp1, mRNA-Seq, sample Day_6_JQ1",11.9996
same,Shisa2 value_2,"gene Shisa2, mRNA-Seq, sample Day_6_JQ1",144.995
same,Slc2a8 value_2,"gene Slc2a8, mRNA-Seq, sample Day_6_JQ1",16.1545
same,Slc9a3r1 value_2,"gene Slc9a3r1, mRNA-Seq, sample Day_6_JQ1",161.158
same,Snai2 value_2,"gene Snai2, mRNA-Seq, sample Day_6_JQ1",23.1888
same,Spag5 value_2,"gene Spag5, mRNA-Seq, sample Day_6_JQ1",9.803
same,Spc25 value_2,"gene Spc25, mRNA-Seq, sample Day_6_JQ1",27.2563
same,Svep1 value_2,"gene Svep1, mRNA-Seq, sample Day_6_JQ1",86.2113
same,Tbx20 value_2,"gene Tbx20, mRNA-Seq, sample Day_6_JQ1",54.5866
same,Tcf19 value_2,"gene Tcf19, mRNA-Seq, sample Day_6_JQ1",43.53
same,Timp2 value_2,"gene Timp2, mRNA-Seq, sample Day_6_JQ1",329.559
same,Top2a value_2,"gene Top2a, mRNA-Seq, sample Day_6_JQ1",41.0029
same,Upk1b value_2,"gene Upk1b, mRNA-Seq, sample Day_6_JQ1",78.8086
same,Wdr6 value_2,"gene Wdr6, mRNA-Seq, sample Day_6_JQ1",56.5942
same,Zwilch value_2,"gene Zwilch, mRNA-Seq, sample Day_6_JQ1",13.4294
same,3110003A17Rik value_2,"mRNA-Seq expression, Day_6_JQ1",104.778
same,6330406I15Rik value_2,"mRNA-Seq expression, Day_6_JQ1",30.5279
same,9030617O03Rik value_2,"mRNA-Seq expression, Day_6_JQ1",9.249
same,AI597468 value_2,"mRNA-Seq expression, Day_6_JQ1",20.0206
same,Adam12 value_2,"mRNA-Seq expression, Day_6_JQ1",22.1402
same,Adora2b value_2,"mRNA-Seq expression, Day_6_JQ1",12.9207
same,Aga value_2,"mRNA-Seq expression, Day_6_JQ1",42.0303
same,Ak3 value_2,"mRNA-Seq expression, Day_6_JQ1",27.7827
same,Anxa6 value_2,"mRNA-Seq expression, Day_6_JQ1",122.139
same,Arhgef10 value_2,"mRNA-Seq expression, Day_6_JQ1",5.987
same,Ass1 value_2,"mRNA-Seq expression, Day_6_JQ1",41.1545
same,Atp8b2 value_2,"mRNA-Seq expression, Day_6_JQ1",19.4721
same,Btg2 value_2,"mRNA-Seq expression, Day_6_JQ1",38.7075
same,C1qtnf1 value_2,"mRNA-Seq expression, Day_6_JQ1",19.1118
same,C1qtnf6 value_2,"mRNA-Seq expression, Day_6_JQ1",58.5752
same,Cav1 value_2,"mRNA-Seq expression, Day_6_JQ1",17.5128
same,Ccdc104 value_2,"mRNA-Seq expression, Day_6_JQ1",19.7014
same,Ccdc109b value_2,"mRNA-Seq expression, Day_6_JQ1",9.232
same,Cdc42bpa value_2,"mRNA-Seq expression, Day_6_JQ1",16.5997
same,Cdkn2b value_2,"mRNA-Seq expression, Day_6_JQ1",41.7085
same,Chst14 value_2,"mRNA-Seq expression, Day_6_JQ1",18.8651
same,Ckap4 value_2,"mRNA-Seq expression, Day_6_JQ1",147.656
same,Cnn2 value_2,"mRNA-Seq expression, Day_6_JQ1",222.556
same,Col5a1 value_2,"mRNA-Seq expression, Day_6_JQ1",106.143
same,Col5a2 value_2,"mRNA-Seq expression, Day_6_JQ1",372.729
same,Col6a1 value_2,"mRNA-Seq expression, Day_6_JQ1",47.4496
same,Col8a1 value_2,"mRNA-Seq expression, Day_6_JQ1",69.7251
same,Cpe value_2,"mRNA-Seq expression, Day_6_JQ1",54.9734
same,Cpz value_2,"mRNA-Seq expression, Day_6_JQ1",4.843
same,Csrp1 value_2,"mRNA-Seq expression, Day_6_JQ1",294.801
same,Cygb value_2,"mRNA-Seq expression, Day_6_JQ1",51.8956
same,Cyp51 value_2,"mRNA-Seq expression, Day_6_JQ1",13.4382
same,Dcaf12l1 value_2,"mRNA-Seq expression, Day_6_JQ1",3.456
same,Dlg4 value_2,"mRNA-Seq expression, Day_6_JQ1",9.101
same,Dnajb4 value_2,"mRNA-Seq expression, Day_6_JQ1",44.3814
same,Dst value_2,"mRNA-Seq expression, Day_6_JQ1",16.9506
same,Eda2r value_2,"mRNA-Seq expression, Day_6_JQ1",23.0105
same,Efemp2 value_2,"mRNA-Seq expression, Day_6_JQ1",169.818
same,Epdr1 value_2,"mRNA-Seq expression, Day_6_JQ1",7.336
same,Evc2 value_2,"mRNA-Seq expression, Day_6_JQ1",7.337
same,Fam114a1 value_2,"mRNA-Seq expression, Day_6_JQ1",29.7898
same,Fam115c value_2,"mRNA-Seq expression, Day_6_JQ1",4.611
same,Fam149a value_2,"mRNA-Seq expression, Day_6_JQ1",4.452
same,Fam189b value_2,"mRNA-Seq expression, Day_6_JQ1",7.431
same,Fgf18 value_2,"mRNA-Seq expression, Day_6_JQ1",10.4873
same,Fhl2 value_2,"mRNA-Seq expression, Day_6_JQ1",40.1985
same,Flnc value_2,"mRNA-Seq expression, Day_6_JQ1",24.3492
same,Fzd2 value_2,"mRNA-Seq expression, Day_6_JQ1",16.4688
same,Gabra3 value_2,"mRNA-Seq expression, Day_6_JQ1",14.8418
same,Gas6 value_2,"mRNA-Seq expression, Day_6_JQ1",41.2636
same,Gm5424 value_2,"mRNA-Seq expression, Day_6_JQ1",5.331
same,Gpx8 value_2,"mRNA-Seq expression, Day_6_JQ1",110.547
same,Grhpr value_2,"mRNA-Seq expression, Day_6_JQ1",13.8722
same,Gria3 value_2,"mRNA-Seq expression, Day_6_JQ1",4.78
same,Igfbp3 value_2,"mRNA-Seq expression, Day_6_JQ1",483.66
same,Igsf8 value_2,"mRNA-Seq expression, Day_6_JQ1",44.7273
same,Il1rap value_2,"mRNA-Seq expression, Day_6_JQ1",20.7058
same,Inpp5a value_2,"mRNA-Seq expression, Day_6_JQ1",33.3765
same,Isoc2b value_2,"mRNA-Seq expression, Day_6_JQ1",4.059
same,Kif1a value_2,"mRNA-Seq expression, Day_6_JQ1",6.57
same,LOC100616095 value_2,"mRNA-Seq expression, Day_6_JQ1",13.992
same,Lama2 value_2,"mRNA-Seq expression, Day_6_JQ1",9.263
same,Lars2 value_2,"mRNA-Seq expression, Day_6_JQ1",12.6226
same,Lpp value_2,"mRNA-Seq expression, Day_6_JQ1",24.9042
same,Lrig3 value_2,"mRNA-Seq expression, Day_6_JQ1",4.218
same,Lrrn4 value_2,"mRNA-Seq expression, Day_6_JQ1",11.7356
same,Maged2 value_2,"mRNA-Seq expression, Day_6_JQ1",60.8426
same,Mboat7 value_2,"mRNA-Seq expression, Day_6_JQ1",28.6438
same,Meg3 value_2,"mRNA-Seq expression, Day_6_JQ1",15.1775
same,Mlec value_2,"mRNA-Seq expression, Day_6_JQ1",92.0676
same,Mmgt2 value_2,"mRNA-Seq expression, Day_6_JQ1",10.425
same,Mmp2 value_2,"mRNA-Seq expression, Day_6_JQ1",73.6315
same,Mpp2 value_2,"mRNA-Seq expression, Day_6_JQ1",4.639
